The test addresses T1, human ETA receptor (Homo sapiens, UniProt P25101).
T1 construct: expressed in transfected cells; host or cells: 293T-17 cells, transient transfection
T1 sequence (P25101 21-427): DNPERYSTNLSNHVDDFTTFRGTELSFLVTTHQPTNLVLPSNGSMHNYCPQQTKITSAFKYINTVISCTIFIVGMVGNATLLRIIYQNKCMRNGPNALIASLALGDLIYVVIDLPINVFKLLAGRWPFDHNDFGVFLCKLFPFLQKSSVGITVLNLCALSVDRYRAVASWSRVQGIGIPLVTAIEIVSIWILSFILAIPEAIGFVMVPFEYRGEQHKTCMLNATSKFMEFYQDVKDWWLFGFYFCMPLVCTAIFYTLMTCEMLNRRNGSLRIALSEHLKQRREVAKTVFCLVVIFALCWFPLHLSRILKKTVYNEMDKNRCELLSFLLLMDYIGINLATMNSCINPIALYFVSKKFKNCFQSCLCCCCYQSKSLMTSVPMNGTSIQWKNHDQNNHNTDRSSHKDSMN
Put plainly: Selectivity of polypeptides on human ETA receptor (IP-One Gq kit, % of positive control ET1). Format: cell-based. Particulars: read-out: hETAR agonist activity, percentage of activity relative to ET1. As to the method:
293T-17 cells were seeded at a density of 650,000 cells per well in a 6-well plate and cultured overnight in an incubator at 37°C and 5% CO2. Afterward, the cells were transfected with an expression vector, PCDNA3.1-hETA which contained a human ETA receptor gene, at a plasmid concentration of 2.5 µg per well. The cells were further cultured for 48 hours, and green fluorescence expression was observed under a fluorescence microscope. The cells were then digested with trypsin and counted. The activity of compounds on the human ETA receptor was determined with the IP-One Gq kit from Cisbio Bioassays. The cells were suspended in Stim Buffer provided in the kit and the cell suspension was added to a 96-well detection plate at 7 µL cell suspension (containing 30,000 cells) per well. The polypeptides to be screened for activity (prepared according to the Preparation Example of the invention) and polypeptide human endothelin ET1 as positive control were dissolved in Stim B to be at a concentration of 2×, and 7 µL was added to the test cells, while 7 µL of PBS solution was added to the cells in the negative control wells. Human endothelin ET1 (ET1: […] (C1-C15,C3-C11)) set forth in SEQ ID No. 85 was used as the positive control polypeptide. The plate was sealed and incubated at 37°C for 1 h in a cell culture incubator. Detection wells, positive control wells, and PBS control wells were each added with 3 µL of IP1 d2 working solution and 3 µL of IP1 Tb cryptotate Antibody working solution. The plate was sealed and incubated in the dark at room temperature (25°C±5°C) for 1 h. The plate seal was removed, and the […] at 665 nm and 620 nm was measured with an ID5 microplate reader. The ratio of the acceptor emission signal to the donor emission signal, i.e., the value of (signal at 665 nm/signal at 620 nm)×10^4, was calculated for each well. With F3 representing the average value of values of signal at 665 nm/signal at 620 nm determined for the test sample at a specific concentration, F5 representing the average value of values of signal at 665 nm/signal at 620 nm determined for the positive control human endothelin ET1 at the same concentration, and T3 representing the average value of values of signal at 665 nm/signal at 620 nm determined for the PBS negative control, the percentage of activity of the test polypeptide sample relative to the positive control sample ET1 = (F3-T3)×100/(F5-T3) (see Table 6). hETA sequence (NCBI accession number L06622.1).

Our source for the activation values is patent EP4702986A1, “POLYPEPTIDE AND USE THEREOF” (Biocells (Beijing) Biotech Co., Ltd., priority 2023, dated 2024).

Read-outs that look alike come from different tables or passages of the source. Numbered stars: 1 amine (or outer) side, 2 acyl side, 3 side chain; on linkers, the order of the positions; unused ones are H or OH. Bridge positions count the residues as written; N and C are the ends. Square brackets hold non-standard residues; d marks the D form. Side chains are listed from the residue outwards. Peptide text beside a SMILES is read from it. * marks the point of attachment. C18 diacid = O=C(O)CCCCCCCCCCCCCCCCC(=O)*; γGlu = O=C(O)[C@H](CCC(=O)[*:2])N[*:1]; Suc = O=C(CCC(=O)[*:2])[*:1]; Orn = NCCC[C@H](N)C(=O)O; AEEA = NCCOCCOCC(=O)O

On to `CC[C@H](C)[C@H](NC(=O)[C@H](CC(=O)O)NC(=O)[C@H](CCCCNC(=O)COCCOCCNC(=O)COCCOCCNC(=O)CC[C@H](NC(=O)CCCCCCCCCCCCCCCCC(=O)O)C(=O)O)NC(=O)[C@H](Cc1c[nH]cn1)NC(=O)[C@H](C)NC(=O)[C@H](Cc1ccccc1)NC(=O)[C@H](Cc1ccc(O)cc1)NC(=O)[C@@H](NC(=O)[C@H](CCC(=O)O)NC(=O)[C@H](CCC(=O)O)NC(=O)[C@H](CCC(=O)O)NC(=O)[C@H](CC(=O)O)NC(=O)CCC(=O)O)C(C)C)C(=O)N[C@H](C(=O)N[C@@H](Cc1c[nH]c2ccccc12)C(=O)O)[C@@H](C)CC` [BX-54] (Suc-DEEEVYFAHK([AEEA-AEEA-γGlu-C18 diacid])DIIW-OH), for which the activation at 10 µM (@10µM) was -18.5%. Also, the activation at 100 µM (@100µM) was -8.66%.

In the case of `CC[C@H](C)[C@H](NC(=O)[C@H](CC(=O)O)NC(=O)[C@H](CCCCN)NC(=O)[C@H](Cc1c[nH]cn1)NC(=O)[C@H](C)NC(=O)[C@H](Cc1ccccc1)NC(=O)[C@H](Cc1ccc(O)cc1)NC(=O)[C@@H](NC(=O)[C@H](CCC(=O)O)NC(=O)[C@H](CCC(=O)O)NC(=O)[C@H](CCC(=O)O)NC(=O)[C@H](CC(=O)O)NC(=O)CCC(=O)O)C(C)C)C(=O)N[C@H](C(=O)N[C@@H](Cc1c[nH]c2ccccc12)C(=O)O)[C@@H](C)CC` [BX-45] (Suc-DEEEVYFAHKDIIW-OH), the activation at 1 µM amounted to 14.7%.

With `CC[C@H](C)[C@H](NC(=O)[C@H](CC(=O)O)NC(=O)[C@@H]1CCCCNC(=O)CC[C@H](NC(=O)[C@H](CCC(=O)O)NC(=O)[C@H](CCC(=O)O)NC(=O)[C@H](CC(=O)O)NC(=O)CCC(=O)O)C(=O)N[C@@H](C(C)C)C(=O)N[C@@H](Cc2ccc(O)cc2)C(=O)N[C@@H](Cc2ccccc2)C(=O)N[C@@H](C)C(=O)N[C@@H](Cc2c[nH]cn2)C(=O)N1)C(=O)N[C@H](C(=O)N[C@@H](Cc1c[nH]c2ccccc12)C(=O)O)[C@@H](C)CC` [BX-50, Suc-DEE cyclo(EVYFAHK)DIIW] (Suc-DEEEVYFAHKDIIW-OH; lactam 4-10), the activation at 0.01 µM stood at 10.1% and the activation at 0.1 µM was -6.92%. Consider `CC[C@H](C)[C@H](NC(=O)[C@H](CC(=O)O)NC(=O)[C@H](CCCN)NC(=O)[C@H](Cc1c[nH]cn1)NC(=O)[C@H](C)NC(=O)[C@H](Cc1ccccc1)NC(=O)[C@H](Cc1ccc(O)cc1)NC(=O)[C@@H](NC(=O)[C@H](CCC(=O)O)NC(=O)[C@H](CCC(=O)O)NC(=O)[C@H](CCC(=O)O)NC(=O)[C@H](CC(=O)O)NC(=O)CCC(=O)O)C(C)C)C(=O)N[C@H](C(=O)N[C@@H](Cc1c[nH]c2ccccc12)C(=O)O)[C@@H](C)CC` [BX-53, Suc-DEEEVYFAHOrnDIIW] (Suc-DEEEVYFAH[Orn]DIIW-OH), for which the activation at 0.01 µM is -17.6% and the activation at 0.1 µM was -17%. On to `CC[C@H](C)[C@H](NC(=O)[C@H](CC(=O)O)NC(=O)[C@H](CCCCNC(=O)CC[C@H](NC(=O)COCCOCCNC(=O)COCCOCCNC(=O)CCCCCCCCCCCCCCCCC(=O)O)C(=O)O)NC(=O)[C@H](Cc1c[nH]cn1)NC(=O)[C@H](C)NC(=O)[C@H](Cc1ccccc1)NC(=O)[C@H](Cc1ccc(O)cc1)NC(=O)[C@@H](NC(=O)[C@H](C)NC(=O)[C@H](CCC(=O)O)NC(=O)[C@H](CCC(=O)O)NC(=O)[C@H](CC(=O)O)NC(=O)CCC(=O)O)C(C)C)C(=O)N[C@H](C(=O)N[C@@H](Cc1c[nH]c2ccccc12)C(=O)O)[C@@H](C)CC` [BX-74] (Suc-DEEAVYFAHK([γGlu-AEEA-AEEA-C18 diacid])DIIW-OH), for which the activation at 10 µM is -2.64% and the activation at 100 µM is -13.5%. With `CC[C@H](C)[C@H](NC(=O)[C@H](CC(=O)O)NC(=O)[C@H](CC(C)C)NC(=O)[C@H](Cc1c[nH]cn1)NC(=O)[C@H](C)NC(=O)[C@H](Cc1ccccc1)NC(=O)[C@H](Cc1ccc(O)cc1)NC(=O)[C@H](CCCCN)NC(=O)[C@H](C)NC(=O)[C@H](CCC(=O)O)NC(=O)[C@H](CCC(=O)O)NC(=O)[C@H](CC(=O)O)NC(=O)CCC(=O)O)C(=O)N[C@H](C(=O)N[C@@H](Cc1c[nH]c2ccccc12)C(=O)O)[C@@H](C)CC` [BX-43] (Suc-DEEAKYFAHLDIIW-OH), the activation at 1 µM turned out to be 13.5%. Besides, where the note is “@10µM”, the activation at 10 µM was determined as 17%.
